Results: patent US9732060B2, “Aminotriazine derivative and pharmaceutical composition comprising the same” (Shionogi & Co., Ltd., priority 2013, dated 2017)
Where two headings read alike, the source gives them in different places.

Tests used:
[1] = target: human P2X3 receptor (Homo sapiens (Human), UniProt P56373); assay: Evaluation of human P2X3 receptor inhibitory activity in the presence of human serum albumin (HSA); type: cell-based; conditions: in the presence of 1% HSA (final concentration)
Description: Stably expressing cell line (C6BU-1 cell transfected with human P2X3 receptor gene (GenBank accession number Y07683; was used. The cells were seeded in a 96-well microtiter plate at a concentration of 8000 cells/well and cultured in the medium (7.0% fetal bovine serum, 7.0% horse serum, 1% antibiotic and antifungal, and 2.0% glutamine in DMEM) for one day at 37° C. under 5% carbon dioxide atmosphere. The medium was replaced with 4 μM Fluo-3-AM solution (20 mM HEPES, 137 mM NaCl, 5.37 mM KCl, 0.9 mM MgCl2, 1.26 mM CaCl2, 5.6 mM D-glucose, 2.5 mM probenecid, 0.5% BSA, and 0.04% Pluronic F-127, pH 7.5) and incubated at 37° C. under 5% dioxide carbon atmosphere for one hour. The plate was washed with washing buffer (20 mM HEPES, 137 mM NaCl, 5.27 mM KCl, 0.9 mM MgCl2, 1.26 mM CaCl2, 5.6 mM D-glucose, 2.5 mM probenecid, pH 7.5), and each well was added with 40 μL of this buffer. The plate was placed in High-Throughput Screening System FDSS 3000 (Hamamatsu Photonics K.K.). Measurement of fluorescence intensity by FDSS 3000 was started, and 40 μL of DMSO solutions containing 1% HSA (final concentrations) different concentrations of the test compound as prepared by dilution with dilution buffer (20 mM HEPES, 137 mM NaCl, 5.27 mM KCl, 0.9 mM MgCl2, 1.26 mM CaCl2, 5.6 mM D-glucose, 2.5 mM probenecid, 0.1% Pluronic F-127, pH 7.5) were dispensed to each well through the built-in automatic dispenser. Five minutes after, 50 nM ATP solution (50 μL) prepared by dilution with the dilution buffer was dispensed through the built-in automatic dispenser, and the measurement of fluorescence intensity was continued for 4 min. For each well, the specific maximum fluorescence intensity was calculated as the ratio of the maximum fluorescence intensity after addition of the ATP solution to the fluorescence intensity at the starting of the measurement. […] FDSS software (Hamamatsu Photonics K.K.) was used for calculation of the specific maximum fluorescence intensity. IC50 was calculated using Microsoft Excel (Microsoft Corporation) and XLfit (idbs Ltd.)

[2] = target: Rat P2X3 receptor (Rattus norvegicus (Rat), UniProt P49654); assay: Evaluation of rat P2X3 receptor inhibitory activity in the presence of rat serum albumin (RSA); type: cell-based; conditions: read-out: ratP2X3 + RSA IC50
Description: Rat P2X3 receptor gene (GenBank accession number NM_031075) was expressed in C6BU-1 cell. The C6BU-1 cells were seeded in a 96-well micro titer plate at a concentration of 2500 cells/well and cultured in the medium (7.0% fetal bovine serum, 7.0% horse serum, and 1% antibiotic and antifungal in DMEM) for one day at 37° C. under 5% carbon dioxide atmosphere. The plasmid was transfected into the cells using transfection reagent FuGENE6 (Promega). The transfected cells were cultured in the medium for one day at 37° C. under 5% carbon dioxide atmosphere. The medium was replaced with 4 μM Fluo-4-AM solution (pH 7.5) containing 20 mM HEPES, 137 mM NaCl, 5.27 mM KCl, 0.9 mM MgCl2, 1.26 mM CaCl2, 5.6 mM D-glucose, 2.5 mM probenecid, 10% RSA, and 0.08% Pluronic F-127, and incubated at 37° C. under 5% dioxide carbon atmosphere for one hour. The plate was washed with washing buffer (20 mM HEPES, 137 mM NaCl, 5.27 mM KCl, 0.9 mM MgCl2, 1.26 mM CaCl2, 5.6 mM D-glucose, 2.5 mM probenecid, pH 7.5), and each well was added with 40 μL of this buffer. The plate was placed in High-Throughput Screening System FDSS 3000 (Hamamatsu Photonics K.K.). Measurement of fluorescence intensity by FDSS 3000 was started, and 40 μL of DMSO solutions containing 1% RSA (final concentrations) and different concentrations of the test compound as prepared by dilution with dilution buffer (20 mM HEPES, 137 mM NaCl, 5.27 mM KCl, 0.9 mM MgCl2, 1.26 mM CaCl2, 5.6 mM D-glucose, 2.5 mM probenecid, 0.1% Pluronic F-127, pH 7.5) were dispensed to each well through the built-in automatic dispenser. Five minutes after, 50 nM ATP solution (50 μL) prepared by dilution with the dilution buffer was dispensed through the built-in automatic dispenser, and the measurement of fluorescence intensity was continued for 4 min. For each well, the specific maximum fluorescence intensity was calculated as the ratio of the maximum fluorescence intensity after addition of the ATP solution to the fluorescence intensity at the starting of the measurement. […] FDSS software (Hamamatsu Photonics K.K.) was used for calculation of the specific maximum fluorescence intensity. IC50 was calculated using Microsoft Excel (Microsoft Corporation) and XLfit (idbs Ltd.).

[3] = Solubility test (1% DMSO, artificial intestinal juice pH 6.8); type: physicochemical; conditions: artificial intestinal juice pH 6.8 with 1% DMSO, 25 °C, fassgf or other biorelevant, kinetic from dmso stock, artificial intestinal juice pH 6.8, 25 degrees Celsius, read-out: Solubulity
Description: The solubility of a compound was determined under a condition in which 1% DMSO was added. 10 mmol/L compound solution was prepared using DMSO, and then 2 μL of the compound solution was added to 198 μL of artificial intestinal juice in pH 6.8 (to 250 mL of 0.2 mol/L potassium dihydrogen phosphate reagent solution was added 118 mL of 0.2 mol/L NaOH reagent solution and water to provide a final volume of 1000 mL). After standing at 25 degrees Celsius for 18 hours, the mixed solution was filtrated with suction. The filtrate was diluted twice with methanol/water (1/1), and then a concentration in the filtration was measured with HPLC or LC/MS/MS by the absolute calibration method.

[4] = Metabolism stability test, pooled human hepatic microsomes; type: in vitro ADME; conditions: remaining rate, human liver microsomes, 30 minutes, compound concentration 0.5 μmol/L
Description: Using commercially available pooled human hepatic microsomes, a test compound is reacted for a constant time, a remaining rate is calculated by comparing a reacted sample and an unreacted sample, thereby, a degree of metabolism in liver is assessed.
A reaction was performed (oxidative reaction) at 37° C. for 0 minute or 30 minutes in the presence of 1 mmol/L NADPH in 0.2 mL of a buffer (50 mmol/L tris-HCl pH 7.4, 150 mmol/L potassium chloride, 10 mmol/L magnesium chloride) containing 0.5 mg protein/mL of human liver microsomes. After the reaction, 50 μL of the reaction solution was added to 100 μL of a methanol/acetonitrile=1/1 (v/v) mixed and centrifuged at 3000 rpm for 15 minutes. The test compound in the supernatant was quantified by LC/MS/MS, and a remaining amount of the test compound after the reaction was calculated, letting a compound amount at 0 minute reaction time to be 100%.
The remaining rate at the compound concentration 0.5 μmol/L are shown below.

[5] = Protein binding test (equilibrium dialysis, unbound fraction in serum); type: in vitro ADME; conditions: 37° C.
Description: The unbound fraction of the present compound in serum was measured using serum of various species.
The reactive conditions are as follows: Evaluation method, Equilibrium dialysis; Reaction time, 24 hours; Reaction temperature, 37° C.; Concentration of the present compound, 2 μg/mL
The test solution was added to each serum and the mixture was agitated to prepare the serum samples at the concentration mentioned above. Each serum sample was added into one side of the cell and phosphate buffered saline (PBS) was added into the other side to perform equilibrium dialysis at 37° C. for 24 hours. Then, the concentration of the compounds in the samples that were obtained from both sides was measured by LC/MS/MS.
The ratio of PBS concentration to serum concentration is expressed as unbound fraction (fu),

[6] = target: CYP1A2 (Homo sapiens (Human), UniProt P05177); assay: CYP inhibition test, CYP1A2; type: in vitro ADME; conditions: pooled human hepatic microsome; 7-ethoxyresorufin-O-deethylation
Description: (§1) Using commercially available pooled human hepatic microsome, and employing, as markers, 7-ethoxyresorufin-O-deethylation (CYP1A2), tolbutamide methyl-hydroxylation (CYP2C9), mephenytoin 4′-hydroxylation (CYP2C19), dextromethorphan O-demethylation (CYP2D6), and terfenedine hydroxylation as typical substrate metabolism reactions of human main five CYP enzyme forms (CYP1A2, 2C9, 2C19, 2D6, 3A4), an inhibitory degree of each metabolite production amount by a test compound was assessed.
(§2) The reaction conditions were as follows: substrate, 0.5 μmol/L ethoxyresorufin (CYP1A2), 100 μmol/L tolbutamide (CYP2C9), 50 μmol/L S-mephenitoin (CYP2C19), 5 μmol/L dextromethorphan (CYP2D6), 1 μmol/L terfenedine (CYP3A4); reaction time, 15 minutes; reaction temperature, 37° C. enzyme, pooled human hepatic microsome 0.2 mg protein/mL; test, drug concentration, 1.0, 5.0, 10, 20 μmol/L (four points).
(§3) Each five kinds of substrates, human hepatic microsome, or a test drug in 50 mmol/L Hepes buffer as a reaction solution was added to a […] at the composition as described above, NADPH, as a cofactor was added to initiate metabolism reactions as markers and, after the incubation at 37° C. for 15 minutes, a methanol/acetonitrile=1/1 (v/v) solution was added to stop the reaction. After the centrifugation at 3000 rpm for 15 minutes, resorufin (CYP1A2 metabolite) in the supernatant was quantified by a fluorescent multilabel counter and tributamide hydroxide (CYP2CP metabolite), mephenytoin 4′hydroxide (CYP2C19 metabolite), […] (CYP2D6 metabolite), and terfenadine alcohol (CYP3A4 metabolite) were quantified by LC/MS/MS.
(§4) Addition of only DMSO being a solvent dissolving a drug to a reaction system was adopted as a control (100%), remaining activity (%) was calculated at each concentration of a test drug added as the solution and IC50 was calculated by reverse presumption by a logistic model using a concentration and an inhibition rate.

[7] = target: CYP2C9 (Homo sapiens (Human), UniProt P11712); assay: CYP inhibition test, CYP2C9; type: in vitro ADME; conditions: pooled human hepatic microsome; tolbutamide methyl-hydroxylation
Description: as §1, §2, §3, §4

[8] = target: CYP2C19 (Homo sapiens (Human), UniProt P33261); assay: CYP inhibition test, CYP2C19; type: in vitro ADME; conditions: pooled human hepatic microsome; mephenytoin 4′-hydroxylation
Description: as §1, §2, §3, §4

[9] = target: CYP2D6 (Homo sapiens (Human), UniProt P10635); assay: CYP inhibition test, CYP2D6; type: in vitro ADME; conditions: pooled human hepatic microsome; dextromethorphan O-demethylation
Description: as §1, §2, §3, §4

[10] = target: CYP3A4 (Homo sapiens (Human), UniProt P08684); assay: CYP inhibition test, CYP3A4; type: in vitro ADME; conditions: pooled human hepatic microsome; terfenedine hydroxylation
Description: as §1, §2, §3, §4

[11] = Pharmacokinetic test (BA, CLtot); type: in vivo; conditions: rat, plasma, SD rats
Description: • (1) Animals: SD rats were used • (2) Breeding conditions: SD rats were allowed to freely take solid food and sterilized tap water. • (3) Dose and grouping: orally or intravenously administered at a predetermined dose; grouping was as follows (Dose depends on the compound)
Oral administration: 1 mg/kg (n=2)
The total body clearance (CLtot) was calculated by dividing the dose by the AUC of the intravenous administration group.

Rat P2X3 receptor, sequence (P49654 whole entry): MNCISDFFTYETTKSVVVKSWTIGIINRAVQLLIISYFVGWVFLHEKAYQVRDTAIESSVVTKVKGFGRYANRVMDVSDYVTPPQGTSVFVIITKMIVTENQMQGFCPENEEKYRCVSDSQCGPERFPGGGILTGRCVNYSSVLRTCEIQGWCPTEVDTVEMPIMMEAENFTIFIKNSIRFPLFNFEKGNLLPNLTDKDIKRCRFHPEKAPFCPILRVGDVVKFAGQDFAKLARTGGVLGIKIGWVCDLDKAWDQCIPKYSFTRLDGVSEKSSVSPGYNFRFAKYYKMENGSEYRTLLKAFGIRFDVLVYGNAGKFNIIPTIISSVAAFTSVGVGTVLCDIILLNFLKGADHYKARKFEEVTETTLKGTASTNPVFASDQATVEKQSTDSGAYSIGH
human P2X3 receptor, sequence (P56373 whole entry): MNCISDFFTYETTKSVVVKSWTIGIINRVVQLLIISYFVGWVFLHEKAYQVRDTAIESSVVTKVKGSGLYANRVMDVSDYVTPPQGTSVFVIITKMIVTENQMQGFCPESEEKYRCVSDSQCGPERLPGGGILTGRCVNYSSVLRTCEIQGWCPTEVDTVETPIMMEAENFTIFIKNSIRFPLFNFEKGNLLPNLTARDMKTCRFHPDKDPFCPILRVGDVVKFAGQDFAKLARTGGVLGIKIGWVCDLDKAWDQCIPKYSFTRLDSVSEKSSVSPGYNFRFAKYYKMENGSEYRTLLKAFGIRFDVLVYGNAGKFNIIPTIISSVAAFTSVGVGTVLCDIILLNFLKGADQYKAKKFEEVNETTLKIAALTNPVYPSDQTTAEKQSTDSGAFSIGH
CYP2C9, sequence (P11712 whole entry): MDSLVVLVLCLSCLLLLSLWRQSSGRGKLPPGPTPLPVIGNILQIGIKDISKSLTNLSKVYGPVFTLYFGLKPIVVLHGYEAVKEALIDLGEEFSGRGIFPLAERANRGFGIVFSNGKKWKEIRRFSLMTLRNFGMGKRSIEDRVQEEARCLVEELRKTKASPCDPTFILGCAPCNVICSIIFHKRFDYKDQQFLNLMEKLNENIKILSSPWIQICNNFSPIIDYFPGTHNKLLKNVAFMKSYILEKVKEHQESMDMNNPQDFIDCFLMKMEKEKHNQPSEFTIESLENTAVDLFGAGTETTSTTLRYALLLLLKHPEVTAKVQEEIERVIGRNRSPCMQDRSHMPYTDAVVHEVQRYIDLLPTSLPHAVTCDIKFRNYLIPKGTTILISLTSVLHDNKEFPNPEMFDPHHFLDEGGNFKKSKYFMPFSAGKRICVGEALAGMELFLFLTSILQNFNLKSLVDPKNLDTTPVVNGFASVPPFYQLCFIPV
CYP2D6, sequence (P10635 whole entry): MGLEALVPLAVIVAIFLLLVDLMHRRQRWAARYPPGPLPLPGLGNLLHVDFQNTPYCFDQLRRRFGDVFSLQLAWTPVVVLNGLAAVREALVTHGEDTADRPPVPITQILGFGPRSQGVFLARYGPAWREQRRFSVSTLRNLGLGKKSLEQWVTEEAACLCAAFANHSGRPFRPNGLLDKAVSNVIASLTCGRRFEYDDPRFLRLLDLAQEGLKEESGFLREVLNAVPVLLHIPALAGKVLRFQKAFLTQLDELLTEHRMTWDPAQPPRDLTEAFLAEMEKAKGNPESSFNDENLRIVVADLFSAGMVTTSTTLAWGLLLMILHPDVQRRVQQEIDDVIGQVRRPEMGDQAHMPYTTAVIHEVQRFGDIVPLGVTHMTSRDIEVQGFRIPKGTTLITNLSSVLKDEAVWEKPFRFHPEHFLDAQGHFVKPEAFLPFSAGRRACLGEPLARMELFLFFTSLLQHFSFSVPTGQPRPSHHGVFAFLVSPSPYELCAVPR
CYP3A4, sequence (P08684 whole entry): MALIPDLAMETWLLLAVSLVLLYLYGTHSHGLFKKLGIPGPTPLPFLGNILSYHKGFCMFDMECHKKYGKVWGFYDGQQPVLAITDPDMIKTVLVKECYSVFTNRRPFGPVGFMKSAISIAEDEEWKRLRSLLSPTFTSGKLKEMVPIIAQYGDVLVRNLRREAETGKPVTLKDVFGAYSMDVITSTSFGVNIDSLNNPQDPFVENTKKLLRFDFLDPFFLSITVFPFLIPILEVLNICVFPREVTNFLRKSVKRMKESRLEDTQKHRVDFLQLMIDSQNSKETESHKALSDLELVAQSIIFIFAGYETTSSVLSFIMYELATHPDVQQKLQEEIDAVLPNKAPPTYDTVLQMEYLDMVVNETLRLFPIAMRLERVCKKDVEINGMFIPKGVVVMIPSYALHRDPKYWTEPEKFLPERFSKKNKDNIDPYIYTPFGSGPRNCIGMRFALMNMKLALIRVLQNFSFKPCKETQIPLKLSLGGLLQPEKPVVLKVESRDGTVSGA
CYP2C19, sequence (P33261 whole entry): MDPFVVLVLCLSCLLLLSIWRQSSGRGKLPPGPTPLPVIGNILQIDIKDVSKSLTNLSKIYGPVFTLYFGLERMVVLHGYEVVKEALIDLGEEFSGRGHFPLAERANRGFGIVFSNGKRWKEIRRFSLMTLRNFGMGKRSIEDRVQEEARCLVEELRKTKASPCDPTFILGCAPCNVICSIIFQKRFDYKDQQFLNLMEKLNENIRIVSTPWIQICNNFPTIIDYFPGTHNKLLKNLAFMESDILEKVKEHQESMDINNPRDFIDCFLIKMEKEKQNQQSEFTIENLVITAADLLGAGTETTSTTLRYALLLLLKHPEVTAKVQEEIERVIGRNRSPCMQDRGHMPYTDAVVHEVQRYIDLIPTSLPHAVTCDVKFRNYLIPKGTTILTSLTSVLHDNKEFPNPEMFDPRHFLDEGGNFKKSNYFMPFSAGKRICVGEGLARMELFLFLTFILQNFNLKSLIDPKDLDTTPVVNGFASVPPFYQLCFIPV
CYP1A2, sequence (P05177 whole entry): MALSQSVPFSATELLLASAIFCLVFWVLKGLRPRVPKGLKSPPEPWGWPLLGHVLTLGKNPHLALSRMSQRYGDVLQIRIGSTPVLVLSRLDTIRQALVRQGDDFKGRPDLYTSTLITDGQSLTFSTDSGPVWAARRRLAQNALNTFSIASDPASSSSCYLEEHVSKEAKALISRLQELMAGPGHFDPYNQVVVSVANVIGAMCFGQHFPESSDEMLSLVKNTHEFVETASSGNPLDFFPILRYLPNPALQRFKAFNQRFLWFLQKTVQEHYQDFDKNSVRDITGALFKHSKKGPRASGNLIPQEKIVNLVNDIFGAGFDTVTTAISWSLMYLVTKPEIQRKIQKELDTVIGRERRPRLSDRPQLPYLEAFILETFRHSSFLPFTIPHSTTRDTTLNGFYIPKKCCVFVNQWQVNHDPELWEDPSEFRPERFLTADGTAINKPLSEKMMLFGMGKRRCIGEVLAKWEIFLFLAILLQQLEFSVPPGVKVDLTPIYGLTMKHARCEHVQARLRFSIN

| Metabolism Stability [4] | SMILES | IC50 [1] | IC50 [2] | solubility at 18 h [3] | fraction unbound at 24 h, 2 μg/mL [5] | further results |
| --- | --- | --- | --- | --- | --- | --- |
| 100% | C[C@@H](Cn1c(=O)[nH]/c(=N\c2ccc(Oc3cccc(F)n3)cc2)n(Cc2ccc(F)cc2F)c1=O)C(=O)O [Compound I-029] | – | – | – | 0.017 | – |
| – | Cc1ccc(Cn2c(=O)n(C[C@H](C)C(=O)O)c(=O)[nH]/c2=N\c2ccc(Oc3ncccc3F)cc2)cc1 [Compound I-056] | 23 nM | – | – | 0.018 | – |
| 91% | Cc1ccc(Cn2c(=O)n(C[C@H](C)C(=O)O)c(=O)[nH]/c2=N\c2ccc(Oc3cccc(F)n3)cc2)cc1 [Compound I-057] | – | – | > 50 µM | 0.017 | IC50 [6]: > 20000 nM; IC50 [7]: > 20000 nM; IC50 [8]: > 20000 nM; IC50 [9]: > 20000 nM; IC50 [10]: > 20000 nM; clearance ([11]; intravenous administration 0.5 mg/kg): 22.9 mL/min/kg; AUC ([11]; intravenous administration 0.5 mg/kg, read-out: AUC (iv)): 367 ng·h/mL; AUC ([11]; oral administration 1 mg/kg, read-out: AUC (po)): 487 ng·h/mL |
| – | C[C@@H](Cn1c(=O)[nH]/c(=N\c2ccc(Oc3cnccn3)cc2)n(Cc2ccc(Cl)cc2)c1=O)C(=O)O [Compound R-019] | – | 8 nM | – | 0.018 | – |

| SMILES | Metabolism Stability [4] | IC50 [1] | IC50 [2] | solubility at 18 h [3] | fraction unbound at 24 h, 2 μg/mL [5] | further results |
| --- | --- | --- | --- | --- | --- | --- |
| O=c1[nH]/c(=N\c2ccc(Oc3ccc(F)cn3)cc2)n(Cc2ccc(Cl)cc2)c(=O)n1[C@H]1C[C@H](C(=O)O)C1 [Compound I-019] | 96% | 68 nM | 11 nM | > 50 µM | 0.01 | – |
